Source: patent US20060167026A1, “Antipsychotic molecular-targeting epithelial growth factor receptor” (Hiroyuki Nawa, priority 2003, published 2006)

Experiments:
[1] = tested on: rat model for cognitive dysfunction (EGF administered to neonatal rats); assay: latent inhibition in two-way active avoidance, neonatally EGF-treated rat model; type: in vivo
Method: The rat model for cognitive/behavioral dysfunction was prepared as EGF was administered to neonatal rats as described in the method of Experiment 1. SD rats were subjected to the two-way active avoidance task in an automated shuttle box (Muromachi-kiki, Tokyo, Japan) on postnatal weeks 6-8. The conditioned stimulus (CS) was an 80-dB tone and house light on and off. Rats learned the following task: When the CS was on, the animals had to cross to the other side of the shuttle box apparatus (avoidance response) in order to turn the CS off and avoid the appearance of the unconditioned stimulus (US). […] Rats were given 6 sessions of two-way active-avoidance conditioning (10 trials per session)(total 60 trials). Active-avoidance learning was evaluated by scoring the number of avoidance rate to CS.
Before this learning test was conducted, the CS of an 80-dB tone and house light had been given to normal rats without delivering US (pre-conditioning), following avoidance learning was impaired in these rats (FIG. 5 top; open circle). This is latent inhibition that represents the effect of the pre-exposure of a conditioned stimulus (CS, e.g. tone), preventing the learning of unconditioned stimulus (Russig H et al. Neuropsychopharmacology 26: p 765-777 (2002)).
When the rat model for cognitive/behavioral dysfunction, which is described in the Experiment 1, was exposed to the pre-conditioning. […] Such persistency can be inducible with hallucinogens such as cocaine (Murphy, C. A. et al. Behav Pharmacol. 12:p 13-23 (2001)).

[2] = tested on: rats to which EGF was administered as neonates (model for cognitive dysfunction); assay: prepulse inhibition of acoustic startle in rats to which EGF was administered as neonates; type: in vivo, rat
Method: Newborn Sprague-Dawley (SD) rats were purchased from SLC (Shizuoka, Japan). Recombinant human EGF (Higeta-Syoyu Co, Chiba Japan) and cytochrome c (Sigma Chemical Co; control) were dissolved in physiologic saline. These agents were administered subcutaneously to rat pups on postnatal days 2, 4, 6, 8, and 10 at the nape of the neck at a dose of 1.75 μg of 1 g body weight).
Acoustic startle amplitudes and PPI responses were measured in a startle reaction chamber for small animals (SR-Lab Systems, San Diego Instruments, San Diego, Calif.) from postnatal week 3. Acoustic startle was induced with acoustic stimuli (120 dB), in combination with three different prepulse intensities of 5-, 10-, and 15-dB-above background noise (75, 80, 85 dB). The 120 dB pulse was followed 100 ms after one of the prepulses was given. Each rat was placed in the startle chamber and initially acclimatized for 5 min with background noise alone. Prepulse inhibition (PPI) of a startle response was calculated as: 100−[(startle response on prepulse pulse stimulus trials−no stimulus trials)/(pulse alone trials−no stimulus trials)×100].
SD rats treated with EGF or cytochrome c (control) were tested on postnatal days 56-66. […] The same concentration of DMSO solution was used as a control.
After anesthesia, a 28 gauge cannula was inserted into the site of rat skull (0.3 mm anterior and 1.2 mm right lateral measured from the bregma, 4.5 mm below the skull) and glued to the skull with dental cement. The end of cannula was connected to an osmotic minipump (250 μl, effective for 14 days model 2002; Azla Corp.) via vinyl tubing. Pumps were implanted subcutaneously in the nape of the neck. […] The scalp incision was closed with surgical suture and staples, and rats were maintained to wait recovery from the operation.
Seven days after administration, prepulse inhibition of the rats was monitored with 85 dB prepulse intensity using the acoustic startle measurement chamber for small animals (SR-Lab Systems, San Diego Instruments, San Diego, Calif.).

Compound: COc1cc2ncnc(Nc3ccc(F)c(Cl)c3)c2cc1OCCCN1CCOCC1 [Compound B, 4-(3-chloro4-fluoroanilino)-7-methoxy-6-(3-morphorinopropoxy) quianozoline]
- learning ability of treated model rats relative to normal controls ([1]; EGF model rats, pre-conditioned, two-way active avoidance): indistinguishable from that of normal controls
- effect on abnormal increase in latent inhibition ([1]; EGF model rats, pre-conditioned, two-way active avoidance, intraventricular minipump): significantly exert an ameliorative effect on abnormal increase in latent inhibition
- learning ability in conditioned avoidance learning ([1]; both normal control rats and model rats, after administration): exhibited better learning ability
- difference in prepulse inhibition between treated model rats and control animals ([2]; EGF model rats, intraventricular minipump 1 mg/ml, day 7, 85 dB prepulse): no significant differences
- effect on abnormal decrease in prepulse inhibition ([2]; EGF model rats, intraventricular osmotic minipump 1 mg/ml, seven days after administration, 85 dB prepulse, compared to solvent-injected group): significantly ameliorated the abnormal decrease in prepulse inhibition
- effect on prepulse inhibition in normal control rats ([2]; normal control rats, intraventricular minipump 1 mg/ml, day 7, 85 dB prepulse): had no effects in prepulse inhibition
